This is an account of results in paper PMC5069162 (Anesthesiology, 2016).

Several values for one entry are separate records, joined by “and”; a condition that tells them apart may be missing. Equal entries are not always repeated. Where two headings read alike, the source gives them in different places.

The term Kd denotes the free concentration of one partner at which half of the binding sites on the other are occupied at equilibrium, for simple one-to-one binding.

Data set [1] deals with T1, 11β-hydroxylase (Rattus norvegicus, UniProt P15393).
T1 sequence (P15393 25-499): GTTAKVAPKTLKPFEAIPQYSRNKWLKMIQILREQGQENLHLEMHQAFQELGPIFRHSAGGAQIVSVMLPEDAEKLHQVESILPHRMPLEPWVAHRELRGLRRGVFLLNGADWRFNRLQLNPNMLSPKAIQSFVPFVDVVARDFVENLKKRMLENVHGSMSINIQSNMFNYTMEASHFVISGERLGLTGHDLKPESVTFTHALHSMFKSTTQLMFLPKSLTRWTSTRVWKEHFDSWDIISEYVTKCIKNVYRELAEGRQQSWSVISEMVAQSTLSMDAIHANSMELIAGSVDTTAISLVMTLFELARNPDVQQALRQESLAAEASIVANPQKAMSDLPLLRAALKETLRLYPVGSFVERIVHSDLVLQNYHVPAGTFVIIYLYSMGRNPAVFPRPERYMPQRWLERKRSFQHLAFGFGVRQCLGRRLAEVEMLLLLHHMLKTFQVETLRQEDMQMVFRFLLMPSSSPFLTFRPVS
The format is binding. The note with it: for Hill coefficient for inhibition of specific 3H-etomidate binding / IC50: 2 nM 3H-etomidate; for Hill coefficient for inhibition of specific 3H-etomidate binding: equation 2; for IC50: 0.07 mg/ml protein; for IC50 higher than that of etomidate: ratio of IC50s for 3H-etomidate binding.

For data set [2] the following is noted: after 2-hr infusion of parent drug in dogs; cited from earlier work.
Another data set concerns rats. Conditions: in rats; cited from earlier work.
Data set [3] deals with T1, 11β-hydroxylase. The data set is classed as binding.
A further data set deals with rat adrenocortical cells. The note with it: read-out: IC50 for inhibiting corticosterone synthesis; cited from earlier work.
Data set [4] addresses 11β-hydroxylase. The note with it: estimated by Zolle et al.; cited from earlier work.
The test system of data set [5] is H295R adrenocortical cells. The note with it: cited from earlier work.
Where [6] appears, read: read-out: half-inhibitory concentration (IC50) for specific 3H-etomidate binding.
The mark [7] stands for this setting: half-inhibitory concentration (IC50) for specific 3H-etomidate binding.

Regarding `C[C@H](c1ccccc1)n1cncc1C(=O)O` [etomidate-CA], the “Hill coefficient for inhibition of specific 3H-etomidate binding” value (shortened to “Hill coefficient for inhibition”) at 11β-hydroxylase [1] is −0.32. On 11β-hydroxylase [1] (setting [6]), the IC50 came out at 1100 µM. In addition, the maximal metabolite concentration in data set [2] was 1680 ng/ml and 7.8 μM.

For the compound “cyclopropyl methoxycarbonyl metomidate [CPMM]”, at 11β-hydroxylase [1], the “Hill coefficient for inhibition” value was −0.55 and the “IC50 higher than that of etomidate” value worked out at 5.5 fold. Further, the IC50 at 11β-hydroxylase [1] (setting [6]) was 0.143 µM. Besides, in the data set on rats, the hypnotic potency is 0.69 ± 0.04 mg/kg.

For the compound `CCOC(=O)c1cncn1[C@H](C)c1ccccc1` [etomidate, reference compound], at 11β-hydroxylase [1], the “Hill coefficient for inhibition” value is reported as −0.82. Further, binding on 11β-hydroxylase [3] was characterised by a dissociation constant (Kd) of 0.021 µM. Further, the “maximum concentration of binding sites (Bmax), homologous competition” value on 11β-hydroxylase [3] (2 nM 3H-etomidate vs cold etomidate, equation 1) is on record as 11,700 CPM. In the data set with rats, the hypnotic potency is 0.53 ± 0.17 mg/kg.

For `CC(C)c1cccc(C(C)C)c1O` [propofol, reference compound], the IC50 on 11β-hydroxylase [1] (setting [7]) was above 100 µM.

With `Cc1cccc([C@H](C)c2cnc[nH]2)c1C` [dexmedetomidine, reference compound], the “Hill coefficient for inhibition” value on 11β-hydroxylase [1] was −0.33. Besides, the values for the IC50 on 11β-hydroxylase [1] (setting [7]) and in the data set on rat adrenocortical cells were 2.2 µM and 1 µM, respectively.

`CNC1(c2ccccc2Cl)CCCCC1=O` (centres unmarked) [ketamine, reference compound]: the “Hill coefficient for inhibition” value on 11β-hydroxylase [1] is −0.23. Besides, the IC50 at 11β-hydroxylase [1] (setting [7]) was ≥ 50 µM and 79 µM.

In the case of `COC(=O)c1cncn1C(C)c1ccc(I)cc1` (centres unmarked), the Kd at 11β-hydroxylase [4] was 0.0116 ± 0.0025 µM.

As to `CCOC(=O)c1cccn1[C@H](C)c1ccccc1` [carboetomidate], on 11β-hydroxylase [1], the “Hill coefficient for inhibition” value is −0.27 and the “IC50 higher than that of etomidate” value is given as 1900 fold. Also, on 11β-hydroxylase [1] (setting [6]), the IC50 is ≥ 50 µM and 50 µM. Also, in data set [5] (H295R adrenocortical cells), the “IC50 for suppressing in vitro cortisol synthesis higher than etomidate” value is recorded as 2000 fold. Further, the “potency at inhibiting cortisol synthesis relative to etomidate” value in data set [5] (adrenocortical cell line) is listed as “three orders of magnitude less potent than etomidate”.
